Test systems include BT-549 breast; T-47D breast; MDA-N.
Common to all, as to test: NCI anticancer screen, dose series, 48 h

Where “and” joins values, the source holds several entries; their conditions need not be identical. Equal entries are not always repeated.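 Each compound was tested at five concentrations against cells in 96-well plates for 48 hours. The concentration for 50% growth inhibition is given as GI50. TGI: total growth inhibition.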 Bounds are passed on as bounds.

Regarding `N#Cc1ccccc1C#C/C=C\C#Cc1cnccn1`, in the experiment with BT-549 breast, the GI50 is 35.4 µM and the TGI was greater than 100 µM. In the experiment with T-47D breast, the GI50 is greater than 66.3 µM and the TGI is greater than 100 µM.
In the case of `CCOC(=O)C(Cc1ccc(N(CCCl)CCCl)cc1)NC(=O)C(CC(C)C)NC(C)=O` (configuration not stated), in the experiment on BT-549 breast, the GI50 is 7.07 µM and the TGI turned out to be 21.7 µM. In the experiment on T-47D breast, the GI50 is 0.642 µM and the TGI came to 3.48 µM.
Regarding `CN(C)CCCn1c2c(c3ccc([N+](=O)[O-])cc3c1=O)C(=O)c1ccccc1-2`, in the experiment on T-47D breast, the GI50 is 24.1 µM and the TGI was greater than 100 µM.
Take `Cn1c(N)cc(=O)nc1N`: the TGI in the experiment with BT-549 breast, in the experiment on MDA-N and in the experiment on T-47D breast was greater than 100 µM in each case.
With `C=CC(=O)N1CC[C@@H](Oc2nc(Nc3ccc(N4CCC(N5CCN(C)CC5)CC4)cc3)c(C(N)=O)nc2CC)C1`, the GI50 in the experiment on BT-549 breast and in the experiment with T-47D breast was greater than 100 µM each time. The TGI in the experiment with BT-549 breast and in the experiment on T-47D breast was greater than 100 µM in each case.
`CCS(=O)(=O)Nc1ccc(Oc2ccc(F)cc2F)c(-c2cn(C)c(=O)c3[nH]ccc23)c1`: the GI50 is 0.366 µM in the experiment on BT-549 breast and 0.0253 µM in the experiment with T-47D breast. Further, the TGI turned out to be 21.3 µM with BT-549 breast and 30.1 µM with T-47D breast.
For `Cn1cnc2nc(Cl)nc(Cl)c21` the same measures were 10.7 µM, 0.489 µM, 66.6 µM and 26.8 µM.
As to `COC(=O)[C@@H](C)C[C@H](Cc1ccccc1)NC(=O)c1cccc([C@@H](C[C@H](C(C)C)N(C)C(=O)[C@@H](NC(=O)[C@H]2CCCCN2C)C(C)C)OC(C)=O)n1`, in the experiment on BT-549 breast, the GI50 was 0.0025 µM and the TGI came out at 0.101 µM.
For `Cc1ccc(SCN2CCCCC2)cc1` (tested in a mixture with another compound), the TGI in the experiment on BT-549 breast is 15 µM; in the experiment on MDA-N it was 22.7 µM; in the experiment with T-47D breast, greater than 100 µM.
Take `COc1ccc(C2CC(c3cccc(Nc4ccnc5cc(Cl)ccc45)c3)=NN2c2ccc(Cl)cc2)cc1` (configuration not stated): in the experiment with BT-549 breast, the GI50 is 2.67 µM and the TGI is 26.6 µM. Also, in the experiment on T-47D breast, the GI50 was 0.702 µM and the TGI stood at 33.2 µM.
For `CCOC(=O)c1ccccc1NC(c1ccccc1)c1ccc2cccnc2c1O` (configuration not stated) the same measures were 4.25 µM, 16.7 µM, 4.22 µM and greater than 100 µM.
`CC(C)(O)C1CC(=O)C(C)(C2C(O)CC3(C)C4CC=C5C(CCC(O)C5(C)C)C4(C)C(=O)CC23C)O1` (configuration not stated): the TGI with BT-549 breast, in the experiment on MDA-N and in the experiment with T-47D breast was greater than 100 µM each time.
`N#CC1=C(N)Oc2c(ccc3ccccc23)C1c1ccccc1Cl` (configuration not stated): in the experiment with BT-549 breast, the GI50 is 1.2 µM and the TGI was 7.74 µM.
For the compound `C[As](C)SCC(COC(=O)c1ccccc1)OC(=O)c1ccccc1` (configuration not stated), the GI50 is 1.01 µM in the experiment with BT-549 breast and 0.0452 µM in the experiment on T-47D breast. In addition, the figures for the TGI with BT-549 breast and in the experiment on T-47D breast were 6.4 µM and 3.84 µM, respectively.
As to `Nc1cc2[nH]c(=O)c3cc(Cl)ccc3c2cc1Cl`, the TGI in the experiment with BT-549 breast and in the experiment with T-47D breast was greater than 100 µM each time.
With `COc1c(C)cnc(Cn2cnc3c(Cl)nc(N)nc32)c1C`, in the experiment with BT-549 breast, the GI50 was 1.43 µM and the TGI was greater than 100 µM. Also, in the experiment with T-47D breast, the GI50 is 0.11 µM and the TGI was greater than 100 µM.
For `CCCCc1ccc(C(N)=O)nc1`, the GI50 with BT-549 breast and with T-47D breast was greater than 100 µM in each case. For the same compound, the TGI in the experiment on BT-549 breast and in the experiment on T-47D breast was greater than 100 µM throughout.
With `CC(CCC/C=C/CCCN(C)C(=N)N)CC(C)C1OC(=O)C(C)C(O)/C=C/C(C)C(O)C(C)C(O)C(C)C(O)CCCC(O)CC2(O)OC(CC(OC(=O)CC(=O)O)CC(O)CC(O)C(C)C(O)/C=C/C=C/C1C)CC(O)C2O` (configuration not stated), in the experiment with BT-549 breast, the GI50 was 2.19 µM and 3.16 µg/mL; the TGI is 4.03 µM and 12 µg/mL. In the experiment on T-47D breast, the GI50 was 1.81 µM and 2.63 µg/mL; the TGI was 4.44 µM and 11.9 µg/mL.
As to `C=C1C(=O)O[C@H]2[C@H]1CC/C(Cn1cc(CNC(=O)c3cc4ccccc4[nH]3)nn1)=C\CC[C@@]1(C)O[C@@H]21`, in the experiment with BT-549 breast, the GI50 is 4.09 µM and the TGI was found to be 16.5 µM. In the experiment with T-47D breast, the GI50 is 3.55 µM and the TGI stood at 20.4 µM.
For `Cc1cccc(NC(=O)c2sc3nc4c(cc3c2N)CCC4)c1C`, the GI50 was 0.443 µM in the experiment with BT-549 breast and 0.351 µM in the experiment with T-47D breast. Moreover, the figures for the TGI with BT-549 breast and in the experiment on T-47D breast were 23.5 µM and 34.7 µM, respectively.
For `CCN(CC)CCC(CNc1c2ccc(Cl)cc2nc2ccc(OC)cc12)c1ccccc1` (configuration not stated) the same measures were 1.97 µM, 2.25 µM, 3.78 µM and 4.96 µM.
For `CCCCCCCCCCCCOC1C(C(COC2OC(C(O)CO)C3OC(C)(C)OC23)OC(=O)Nc2ccc([N+](=O)[O-])cc2)OC2OC(C)(C)OC21` (configuration not stated) the same measures were 1.9 µM, 4.71 µM, 5.57 µM and 16.9 µM.
In the case of `Cn1c([N+](=O)[O-])cnc1/C=C1\Oc2ccc(Cl)cc2C1=O`, in the experiment with BT-549 breast, the GI50 was 1.2 µM and the TGI was 4.99 µM. Moreover, in the experiment with T-47D breast, the GI50 is 4.07 µM and the TGI was determined as 46.4 µM.
Consider `O=C(/C=C\c1ccc(Cl)c(Cl)c1)c1ccccc1`, for which, in the experiment on BT-549 breast, the GI50 is 9.85 µM and the TGI stood at 22 µM.
Turning to `Oc1c(Br)cc(Br)c2cccnc12`, in the experiment with BT-549 breast, the GI50 is 4 µM and the TGI is greater than 100 µM. For the same compound, in the experiment on T-47D breast, the GI50 was 3.03 µM and the TGI is 18.4 µM.
For `C#Cc1cccc(NC(=O)Nc2cccc(NC(=O)CCl)c2)c1` the same measures were 16.3 µM, greater than 82.5 µM, 32.1 µM and greater than 82.5 µM.
For `N#Cc1c(-c2ccc(Cl)cc2)n([O-])c2ccccc2[n+]1=O` the same measures were 23.2 µM, 52.3 µM, 6.47 µM and 25.8 µM.
For `Cc1nn(-c2ccccc2)c2ncc3c(c12)C(=O)N(Cc1ccccc1)C3=O` the same measures were 4.23 µM, 38.6 µM, 4.86 µM and 20.7 µM.
For the compound `O=C(/C=C/CN1CCCCC1)Nc1cc2c(Nc3ccc(F)c(Cl)c3F)ncnc2cc1OCCOC(F)F`, in the experiment on BT-549 breast, the GI50 is 1.97 µM and the TGI came to 8.62 µM. Further, in the experiment on T-47D breast, the GI50 was 0.0535 µM and the TGI stood at 1.37 µM.
For `COc1ccc(-c2nccn2-c2cc(OC)c(OC)c(OC)c2)cc1` the same measures were greater than 32.1 µM, greater than 100 µM, 9.55 µM and greater than 100 µM.
Take `CNCc1ccc(C)c(NC(=O)c2ccc(Nc3nc(-c4ccccc4)c4ccccc4n3)cc2)c1`: in the experiment on BT-549 breast, the GI50 is 1.84 µM and the TGI came out at 3.37 µM. In the experiment with T-47D breast, the GI50 is 2.26 µM and the TGI turned out to be 5.59 µM.
For `Oc1ccc(-c2nc(-c3ccc4oc5ccc(-c6[nH]c(-c7ccc(O)cc7)nc6-c6ccccc6)cc5c4c3)c(-c3ccccc3)[nH]2)cc1` the same measures were 18.8 µM, 58.2 µM, 4.66 µM and greater than 100 µM.
For `COc1ccc(/C=C2\CC(C)CC3C2=NN(C(C)=O)C3c2ccc(OC)c(OC)c2)cc1OC` (configuration not stated) the same measures were 19 µM, 37.9 µM, 2.68 µM and 9.42 µM.
For `CC(=O)OC1C(OC/C2=C/C3[C@@H](C(C)C)CC=C(C)[C@@H]3CC(OC(=O)/C=C/c3cn(C)cn3)[C@]3(C)C=C[C@@]2(O)O3)OCC(O)C1O` (some centres not stated) the same measures were 0.0129 µM, 0.136 µM, 0.0219 µM and greater than 50 µM.
Turning to `Cc1cc(N2CCOCC2)nc(N(CCNc2ccnc3cc(Cl)ccc23)Cc2cccs2)n1`, in the experiment with T-47D breast, the GI50 was 1.84 µM and the TGI was found to be 4.4 µM.
Turning to `CC1SC(c2cccc(Oc3ccccc3)c2)N(CCc2cccs2)C1=O` (configuration not stated), in the experiment on BT-549 breast, the GI50 was 1.04 µM and the TGI stood at 2.4 µM. For the same compound, in the experiment with T-47D breast, the GI50 was 0.594 µM and the TGI amounted to 5.11 µM.
Turning to `COc1cc(C2C3=C(COC3=O)N(CCO)c3cc4c(cc32)CCC4)cc(OC)c1OC` (configuration not stated), in the experiment with BT-549 breast, the GI50 is 0.136 µM and the TGI is greater than 18.4 µM. For the same compound, in the experiment on T-47D breast, the GI50 is greater than 32.5 µM and the TGI was greater than 32.5 µM.
Regarding `COc1cc2c(cc1Nc1nc(Nc3ccsc3C(N)=O)c3cc[nH]c3n1)N(C(=O)CN(C)C)CCC2`, in the experiment with BT-549 breast, the GI50 is 2.38 µM and the TGI was 6.43 µM. Further, in the experiment with T-47D breast, the GI50 was 3.87 µM and the TGI is 9.65 µM.
